Assay results as given in PMC4758734, “Purification and Characterization of Glutaminase Free Asparaginase from Enterobacter cloacae: In-Vitro Evaluation of Cytotoxic Potential against Human Myeloid Leukemia HL-60 Cells” (PLoS ONE, 2016).

System: T1, glutaminase free asparaginase from Enterobacter cloacae
T1 construct: gene ansB; native, purified from culture supernatant (ammonium sulphate, DEAE-cellulose, Sephadex G-100); EC 3.5.1.1
Assay: Nesslerization (ammonia release), Lineweaver-Burk plot
Format: biochemical
Settings: 0.05 M phosphate buffer pH 7.5, 37°C; L-asparagine 0.2–24 mM

NC(=O)C[C@H](N)C(=O)O [L-asparagine]
Km: 1.58 mM
